Source: ChEMBL document CHEMBL5046292, “Resveratrol-Based MTDLs to Stimulate Defensive and Regenerative Pathways and Block Early Events in Neurodegenerative Cascades” (J Med Chem, 2022)
Calls of active or inactive are those of the source. No cut-off for these calls is given here.

Columns and labels:
[1] = biological target: T1, Nuclear factor erythroid 2-related factor 2 (Homo sapiens) (UniProt Q16236); conditions: Arec32, time 24.0 hrs
T1 sequence (whole entry): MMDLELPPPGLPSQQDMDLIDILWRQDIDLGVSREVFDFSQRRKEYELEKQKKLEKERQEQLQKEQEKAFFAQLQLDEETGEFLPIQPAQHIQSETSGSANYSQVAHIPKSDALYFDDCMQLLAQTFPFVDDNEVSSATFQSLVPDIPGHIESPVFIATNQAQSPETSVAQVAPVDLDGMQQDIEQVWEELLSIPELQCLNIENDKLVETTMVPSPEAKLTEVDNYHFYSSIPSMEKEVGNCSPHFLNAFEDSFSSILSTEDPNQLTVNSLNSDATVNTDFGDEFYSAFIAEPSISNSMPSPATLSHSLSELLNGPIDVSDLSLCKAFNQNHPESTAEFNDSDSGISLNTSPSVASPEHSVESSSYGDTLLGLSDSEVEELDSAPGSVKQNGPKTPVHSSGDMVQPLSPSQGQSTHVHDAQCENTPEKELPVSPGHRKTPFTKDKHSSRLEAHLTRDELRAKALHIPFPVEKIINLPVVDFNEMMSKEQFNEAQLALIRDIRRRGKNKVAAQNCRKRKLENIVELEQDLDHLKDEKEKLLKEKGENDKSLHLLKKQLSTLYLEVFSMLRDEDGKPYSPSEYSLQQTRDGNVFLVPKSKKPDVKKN

in vitro = conditions: PAMPA, pH 7.4
Description: Permeability of compound in PBS buffer at pH 7.4 by PAMPA-BBB assay

Hippocampal neurone [2] = assay: Induction of neurogenesis in C57BL/6 mouse hippocampus neurospheres assessed as upregulation of MAP-2 by confocal microscopic analysis; type: functional, cell-based
[3] = biological target: T2, Amine oxidase [flavin-containing] B (Homo sapiens, UniProt P27338); assay: Inhibition of human recombinant MAO-B at 15 microM preincubated upto 30 mins using tyramine as substrate by fluorescence assay relative to control; conditions: TDE = time-dependent effect
T2 sequence (P27338 whole entry): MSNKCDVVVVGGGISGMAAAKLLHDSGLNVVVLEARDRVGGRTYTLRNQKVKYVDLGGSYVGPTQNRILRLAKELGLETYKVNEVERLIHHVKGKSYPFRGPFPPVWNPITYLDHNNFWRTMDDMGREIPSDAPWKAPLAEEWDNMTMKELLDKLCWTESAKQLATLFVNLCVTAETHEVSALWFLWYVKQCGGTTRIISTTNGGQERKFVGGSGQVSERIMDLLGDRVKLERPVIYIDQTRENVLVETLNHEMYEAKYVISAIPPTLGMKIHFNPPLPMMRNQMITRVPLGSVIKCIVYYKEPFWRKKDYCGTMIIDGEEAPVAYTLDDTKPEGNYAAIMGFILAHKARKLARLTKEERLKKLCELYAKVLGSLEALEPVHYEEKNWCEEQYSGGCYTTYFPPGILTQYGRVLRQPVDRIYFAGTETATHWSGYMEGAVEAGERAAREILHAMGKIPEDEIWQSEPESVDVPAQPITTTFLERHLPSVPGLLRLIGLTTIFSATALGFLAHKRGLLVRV

Hippocampus [4] = assay: Down regulation of okadaic acid induced HO-1 expression in C57BL/6J mouse hippocampus slice at 1 uM by Western blotting analysis; type: functional, tissue-based
Hippocampus [5] = assay: Neuroprotective activity in okadaic acid-induced toxicity in C57BL/6J mouse hippocampus slice assessed reduction in ROS level at 1 uM after 6 hrs by H2DCFDA probe based fluorescence analysis; type: functional, tissue-based
[6] = GSH reactivity in presence glutathione-S-transferas by HPLC-MS analysis; type: physicochemical
Hippocampus [7] = assay: Neuroprotective activity in okadaic acid-induced toxicity in C57BL/6J mouse hippocampus slice assessed cell death at 1 uM after 6 hrs by propidium iodide staining; type: functional, tissue-based
SH-SY5Y = assay: (§1) Cytotoxicity against human SH-SY5Y cells assessed as cell viability at 100 uM incubated for 24 hrs by MTT assay; type: toxicity, cell-based; conditions: sh-sy5y, 24 h, 100 µM
Hippocampus [8] = assay: Neuroprotective activity in okadaic acid-induced toxicity in C57BL/6J mouse hippocampus slice assessed as cell viability at 1 uM measured after 6 hrs by MTT assay; type: functional, tissue-based
Hippocampus [9] = assay: Down regulation of okadaic acid induced p65 expression in C57BL/6J mouse hippocampus slice at 1 uM by Western blotting analysis; type: functional, tissue-based
Hippocampus [10] = assay: Down regulation of okadaic acid-induced inducible nitric oxide synthase expression in C57BL/6J mouse hippocampus slice at 1 uM by Western blotting analysis; type: functional, tissue-based
Hippocampal neurone [11] = assay: Induction of neurogenesis in C57BL/6 mouse hippocampus neurospheres assessed as upregulation of TuJ-1 by confocal microscopic analysis; type: functional, cell-based
Hippocampal neurone [12] = assay: Induction of neurogenesis in C57BL/6 mouse assessed as increase in cell migration distance by confocal microscopic analysis; type: functional, cell-based
[13] = biological target: T2, Amine oxidase [flavin-containing] B; assay: Inhibition of human recombinant MAO-B at 2 microM preincubated upto 30 mins using tyramine as substrate by fluorescence assay relative to control; conditions: TDE = time-dependent effect
[14] = as §1; type: toxicity, cell-based; conditions: SH-SY5Y cells, read-out: Activity

Question: Which CD [1] does the source give for `COc1ccc(/C=C/c2n[nH]c(=O)o2)cc1OC` here?
Answer: The CD was greater than 60 µM.

Question: Which results are given for `O=c1[nH]nc(/C=C/c2cc(O)cc(O)c2)o1`?
Answer: CD [1]: > 60 µM; Papp (in vitro): ≤ 0.1 ×10⁻⁶ cm/s

Question: For `C#CCn1nc(/C=C/c2ccc(OC)cc2)oc1=O`, which Activity (Hippocampal neurone [2]) is on record?
Answer: The Activity was “Active”.

Question: And the Activity [3]?
Answer: The Activity was “Tde”.

Question: And the Activity (Hippocampus [4])?
Answer: Its Activity is “inactive”.

Question: And the Activity (Hippocampus [5])?
Answer: Its Activity is “Active”.

Question: What about the Activity [6] of the same compound?
Answer: The Activity was “Not Active”.

Question: What about the Activity (Hippocampus [7]) of the same compound?
Answer: The Activity was “Active”.

Question: What about the Activity (SH-SY5Y) of the same compound?
Answer: Its Activity is “Non-Toxic”.

Question: And the Activity (Hippocampus [8])?
Answer: The Activity was “Active”.

Question: And the Activity (Hippocampus [9])?
Answer: The Activity was “Active”.

Question: What about the Activity (Hippocampus [10]) of the same compound?
Answer: Its Activity is “Active”.

Question: And the Activity (Hippocampal neurone [11])?
Answer: Its Activity is “Active”.

Question: And the Activity (Hippocampal neurone [12])?
Answer: The Activity was “Active”.

Question: With `C#CCNC(=O)/C=C/c1ccc(O)cc1` as the compound, how does the CD [1] read?
Answer: Its CD is greater than 60 µM.

Question: Which Activity (Hippocampal neurone [2]) does the source give for `O=c1[nH]nc(/C=C/c2cccc([N+](=O)[O-])c2)o1` here?
Answer: The Activity was “Active”.

Question: What about the Activity (Hippocampal neurone [11]) of the same compound?
Answer: Its Activity is “Active”.

Question: And the Activity [13]?
Answer: The Activity was “Tde”.

Question: And the Activity (Hippocampal neurone [12])?
Answer: The Activity was “Active”.

Question: For `O=c1[nH]nc(/C=C/c2ccc(O)c(O)c2)o1`, which Activity (SH-SY5Y) is on record?
Answer: Its Activity is “Non-Toxic”.

Question: With `C#CCn1nc(/C=C/c2cccc(OC)c2)oc1=O` as the compound, how does the Activity (Hippocampal neurone [2]) read?
Answer: Its Activity is “Active”.

Question: What about the Activity (SH-SY5Y) of the same compound?
Answer: Its Activity is “Non-Toxic”.

Question: And the Activity (Hippocampal neurone [11])?
Answer: Its Activity is “Active”.

Question: And the Activity (Hippocampal neurone [12])?
Answer: The Activity was “Active”.

Question: Which viability at 24 h, 100 µM [14] does the source give for `C#CCn1nc(/C=C/c2ccccc2)oc1=O` here?
Answer: Its viability at 24 h, 100 µM is 30%.

Question: For `O=c1[nH]nc(/C=C/c2ccc(O)cc2)o1`, which Activity (SH-SY5Y) is on record?
Answer: The Activity was “Non-Toxic”.

Question: What about the Papp (in vitro) of the same compound?
Answer: The Papp was no more than 0.7 ×10⁻⁶ cm/s.

Question: Which Activity (Hippocampal neurone [2]) does the source give for `O=c1[nH]nc(/C=C/c2cccc(O)c2)o1` here?
Answer: Its Activity is “Active”.

Question: What about the Activity (Hippocampal neurone [11]) of the same compound?
Answer: The Activity was “Active”.

Question: And the CD [1]?
Answer: Its CD is greater than 60 µM.

Question: What about the Papp (in vitro) of the same compound?
Answer: Its Papp is no more than 0.5 ×10⁻⁶ cm/s.

Question: And the Activity (Hippocampal neurone [12])?
Answer: Its Activity is “Active”.

Question: Which CD [1] does the source give for `O=c1[nH]nc(/C=C/c2ccc3c(c2)OCO3)o1` here?
Answer: The CD was greater than 60 µM.

Question: What does the source list for `C#CCNC(=O)/C=C/c1ccc(O)c(O)c1`?
Answer: Activity (SH-SY5Y): Non-Toxic; Papp (in vitro): ≤ 0.4 ×10⁻⁶ cm/s

Question: For `C#CCNC(=O)/C=C/c1cccc(C#N)c1`, which CD [1] is on record?
Answer: Its CD is greater than 60 µM.

Question: With `COc1cccc(/C=C/c2n[nH]c(=O)o2)c1` as the compound, how does the Activity (Hippocampal neurone [2]) read?
Answer: The Activity was “Active”.

Question: And the Activity (Hippocampal neurone [11])?
Answer: The Activity was “Active”.

Question: And the CD [1]?
Answer: Its CD is greater than 60 µM.

Question: And the Activity (Hippocampal neurone [12])?
Answer: Its Activity is “Active”.

Question: For `C#CCNC(=O)/C=C/c1ccc(O)c(OC)c1`, which CD [1] is on record?
Answer: Its CD is greater than 60 µM.

Question: What about the Papp (in vitro) of the same compound?
Answer: Its Papp is no more than 0.5 ×10⁻⁶ cm/s.

Question: For `COc1ccc(/C=C/c2n[nH]c(=O)o2)cc1`, which CD [1] is on record?
Answer: The CD was greater than 60 µM.

Question: Which viability at 24 h, 100 µM [14] does the source give for `Oc1ccc(/C=C/c2cc(O)cc(O)c2)cc1` [RESVERATROL] here?
Answer: The viability at 24 h, 100 µM was 50%.

Question: With `C#CCNC/C=C/c1ccc(O)c(OC)c1` as the compound, how does the Activity (SH-SY5Y) read?
Answer: Its Activity is “Non-Toxic”.

Question: For `COc1cc(/C=C/c2n[nH]c(=O)o2)cc(OC)c1OC`, which Papp (in vitro) is on record?
Answer: The Papp was no more than 0.5 ×10⁻⁶ cm/s.
